From patent publication US10597388B2, “Pyridazinone herbicides” (FMC CORPORATION, priority 2014, dated 2020)

How the values were obtained:
Assay in all cases: Test E greenhouse herbicide test, pre- and postemergence
Format in all cases: in vivo
[1] = tested on: arrowleaf sida (Sida rhombifolia)
In short: (§1)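 Visual ratings, 0 for no effect up to 100 for complete control, were taken relative to controls 14 to 21 d after greenhouse treatment. Applications used a surfactant-containing non-phytotoxic solvent formulation, sprayed either preemergence on silt loam-sown seed or postemergence on 1- to 4-leaf plants 2-18 cm tall in peat-based potting medium.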

[2] = tested on: barnyardgrass (Echinochloa crus-galli)
In short: as §1

[3] = tested on: crabgrass, Brazilian (Brazilian crabgrass, Digitaria horizontalis)
In short: as §1

[4] = tested on: crabgrass, large (large crabgrass, Digitaria sanguinalis); conditions: Preemergence
In short: as §1

[5] = tested on: field bindweed (Convolvulus arvensis)
In short: as §1

[6] = tested on: foxtail, giant (giant foxtail, Setaria faberii); conditions: Preemergence
In short: as §1

[7] = tested on: goosegrass (Eleusine indica); conditions: Preemergence
In short: as §1

[8] = tested on: horseweed (Conyza canadensis)
In short: as §1

[9] = tested on: johnsongrass (Sorghum halepense); conditions: Preemergence
In short: as §1

[10] = tested on: momingglory (Ipomoea coccinea); conditions: Preemergence
In short: as §1

[11] = tested on: nightshade (eastern black nightshade, Solanum ptycanthum); conditions: Preemergence
In short: as §1

[12] = tested on: panicum, fall (fall panicum, Panicum dichotomiflorum)
In short: as §1

[13] = tested on: pigweed, palmer (palmer pigweed, Amaranthus palmeri)
In short: as §1

[14] = tested on: ragweed (common ragweed, Ambrosia elatior)
In short: as §1

soybean (Glycine max) = tested on: soybean (Glycine max)
In short: as §1

[15] = tested on: surinam grass (Brachiaria decumbens); conditions: Preemergence
In short: as §1

[16] = 62 g ai/ha, Postemergence, scale 0 to 100 (0 no effect, 100 complete control)
[17] = 62 g ai/ha, Preemergence, scale 0 to 100 (0 no effect, 100 complete control)
[18] = 125 g ai/ha, Postemergence, scale 0 to 100 (0 no effect, 100 complete control)
[19] = 125 g ai/ha, Preemergence, scale 0 to 100 (0 no effect, 100 complete control)
[20] = 250 g ai/ha, Postemergence, scale 0 to 100 (0 no effect, 100 complete control)
[21] = Postemergence, 31 g ai/ha, visual, scale 0 no effect to 100 complete control
[22] = Preemergence, 31 g ai/ha, scale 0 to 100, 0 no effect, 100 complete control
[23] = Preemergence, 250 g ai/ha, visual, scale 0 no effect to 100 complete control
[24] = 62 g ai/ha, scale 0 to 100 (0 no effect, 100 complete control)
[25] = 125 g ai/ha, scale 0 to 100 (0 no effect, 100 complete control)
[26] = 31 g ai/ha, scale 0 to 100, 0 no effect, 100 complete control
[27] = 250 g ai/ha, visual, scale 0 no effect to 100 complete control

Compound: Cc1ccc2ccccc2c1-c1c(OC(=O)OC(C)C)c(C)nn(C)c1=O [Compound 72]
- Plant response rating, Arrowleaf Sida [1, 16]: 75
- Plant response rating, Arrowleaf Sida [1, 17]: 35
- Plant response rating, Arrowleaf Sida [1, 18]: 80
- Plant response rating, Arrowleaf Sida [1, 19]: 85
- Plant response rating, Arrowleaf Sida [1, 20]: 90
- Plant response rating, Arrowleaf Sida [1, 21]: 70
- Plant response rating, Arrowleaf Sida [1, 22]: 20
- Plant response rating, Arrowleaf Sida [1, 23]: 65
- Plant response rating, Barnyardgrass [2, 16]: 40
- Plant response rating, Barnyardgrass [2, 17]: 30
- Plant response rating, Barnyardgrass [2, 18]: 40
- Plant response rating, Barnyardgrass [2, 19]: 50
- Plant response rating, Barnyardgrass [2, 20]: 50
- Plant response rating, Barnyardgrass [2, 21]: 30
- Plant response rating, Barnyardgrass [2, 22]: 0
- Plant response rating, Barnyardgrass [2, 23]: 50
- Plant response rating, Crabgrass, Brazil [3, 16]: 40
- Plant response rating, Crabgrass, Brazil [3, 17]: 60
- Plant response rating, Crabgrass, Brazil [3, 18]: 60
- Plant response rating, Crabgrass, Brazil [3, 19]: 90
- Plant response rating, Crabgrass, Brazil [3, 20]: 70
- Plant response rating, Crabgrass, Brazil [3, 21]: 50
- Plant response rating, Crabgrass, Brazil [3, 22]: 50
- Plant response rating, Crabgrass, Brazil [3, 23]: 98
- Plant response rating, Crabgrass, Large [4, 24]: 0
- Plant response rating, Crabgrass, Large [4, 25]: 30
- Plant response rating, Crabgrass, Large [4, 26]: 0
- Plant response rating, Crabgrass, Large [4, 27]: 90
- Plant response rating, Field Bindweed [5, 16]: 80
- Plant response rating, Field Bindweed [5, 17]: 0
- Plant response rating, Field Bindweed [5, 18]: 95
- Plant response rating, Field Bindweed [5, 19]: 65
- Plant response rating, Field Bindweed [5, 20]: 90
- Plant response rating, Field Bindweed [5, 21]: 70
- Plant response rating, Field Bindweed [5, 22]: 0
- Plant response rating, Field Bindweed [5, 23]: 90
- Plant response rating, Foxtail, Giant [6, 24]: 65
- Plant response rating, Foxtail, Giant [6, 25]: 70
- Plant response rating, Foxtail, Giant [6, 26]: 35
- Plant response rating, Foxtail, Giant [6, 27]: 80
- Plant response rating, Goosegrass [7, 24]: 40
- Plant response rating, Goosegrass [7, 25]: 60
- Plant response rating, Goosegrass [7, 26]: 20
- Plant response rating, Goosegrass [7, 27]: 80
- Plant response rating, Horseweed [8, 16]: 60
- Plant response rating, Horseweed [8, 17]: 100
- Plant response rating, Horseweed [8, 18]: 75
- Plant response rating, Horseweed [8, 19]: 100
- Plant response rating, Horseweed [8, 20]: 70
- Plant response rating, Horseweed [8, 21]: 60
- Plant response rating, Horseweed [8, 22]: 0
- Plant response rating, Horseweed [8, 23]: 100
- Plant response rating, Johnsongrass [9, 24]: 0
- Plant response rating, Johnsongrass [9, 25]: 35
- Plant response rating, Johnsongrass [9, 26]: 0
- Plant response rating, Johnsongrass [9, 27]: 35
- Plant response rating, Morningglory [10, 24]: 30
- Plant response rating, Morningglory [10, 25]: 80
- Plant response rating, Morningglory [10, 26]: 20
- Plant response rating, Morningglory [10, 27]: 95
- Plant response rating, Nightshade [11, 24]: 80
- Plant response rating, Nightshade [11, 25]: 100
- Plant response rating, Nightshade [11, 26]: 0
- Plant response rating, Nightshade [11, 27]: 100
- Plant response rating, Panicum, Fall [12, 16]: 80
- Plant response rating, Panicum, Fall [12, 17]: 80
- Plant response rating, Panicum, Fall [12, 18]: 80
- Plant response rating, Panicum, Fall [12, 19]: 90
- Plant response rating, Panicum, Fall [12, 20]: 85
- Plant response rating, Panicum, Fall [12, 21]: 75
- Plant response rating, Panicum, Fall [12, 22]: 75
- Plant response rating, Panicum, Fall [12, 23]: 98
- Plant response rating, Pigweed, Palmer [13, 16]: 50
- Plant response rating, Pigweed, Palmer [13, 17]: 75
- Plant response rating, Pigweed, Palmer [13, 18]: 60
- Plant response rating, Pigweed, Palmer [13, 19]: 95
- Plant response rating, Pigweed, Palmer [13, 20]: 75
- Plant response rating, Pigweed, Palmer [13, 21]: 50
- Plant response rating, Pigweed, Palmer [13, 22]: 35
- Plant response rating, Pigweed, Palmer [13, 23]: 90
- Plant response rating, Ragweed [14, 16]: 90
- Plant response rating, Ragweed [14, 17]: 90
- Plant response rating, Ragweed [14, 18]: 90
- Plant response rating, Ragweed [14, 19]: 90
- Plant response rating, Ragweed [14, 20]: 95
- Plant response rating, Ragweed [14, 21]: 85
- Plant response rating, Ragweed [14, 22]: 0
- Plant response rating, Ragweed [14, 23]: 100
- Plant response rating, Soybean (soybean (Glycine max); [16]): 30
- Plant response rating, Soybean (soybean (Glycine max); [17]): 0
- Plant response rating, Soybean (soybean (Glycine max); [18]): 30
- Plant response rating, Soybean (soybean (Glycine max); [19]): 0
- Plant response rating, Soybean (soybean (Glycine max); [20]): 50
- Plant response rating, Soybean (soybean (Glycine max); [21]): 25
- Plant response rating, Soybean (soybean (Glycine max); [22]): 0
- Plant response rating, Soybean (soybean (Glycine max); [23]): 15
- Plant response rating, Surinam Grass [15, 24]: 40
- Plant response rating, Surinam Grass [15, 25]: 75
- Plant response rating, Surinam Grass [15, 26]: 5
- Plant response rating, Surinam Grass [15, 27]: 90

Compound: Cc1nn(C)c(=O)c(-c2ccc(Br)c3ccccc23)c1O [Compound 75]
- Plant response rating, Arrowleaf Sida [1, 16]: 70
- Plant response rating, Arrowleaf Sida [1, 17]: 75
- Plant response rating, Arrowleaf Sida [1, 18]: 80
- Plant response rating, Arrowleaf Sida [1, 19]: 90
- Plant response rating, Arrowleaf Sida [1, 20]: 80
- Plant response rating, Arrowleaf Sida [1, 21]: 70
- Plant response rating, Arrowleaf Sida [1, 22]: 50
- Plant response rating, Arrowleaf Sida [1, 23]: 98
- Plant response rating, Barnyardgrass [2, 16]: 30
- Plant response rating, Barnyardgrass [2, 17]: 20
- Plant response rating, Barnyardgrass [2, 18]: 25
- Plant response rating, Barnyardgrass [2, 19]: 35
- Plant response rating, Barnyardgrass [2, 20]: 30
- Plant response rating, Barnyardgrass [2, 21]: 20
- Plant response rating, Barnyardgrass [2, 22]: 20
- Plant response rating, Barnyardgrass [2, 23]: 65
- Plant response rating, Crabgrass, Brazil [3, 16]: 40
- Plant response rating, Crabgrass, Brazil [3, 17]: 20
- Plant response rating, Crabgrass, Brazil [3, 18]: 50
- Plant response rating, Crabgrass, Brazil [3, 19]: 90
- Plant response rating, Crabgrass, Brazil [3, 20]: 50
- Plant response rating, Crabgrass, Brazil [3, 21]: 40
- Plant response rating, Crabgrass, Brazil [3, 22]: 0
- Plant response rating, Crabgrass, Brazil [3, 23]: 90
- Plant response rating, Crabgrass, Large [4, 24]: 0
- Plant response rating, Crabgrass, Large [4, 25]: 0
- Plant response rating, Crabgrass, Large [4, 26]: 0
- Plant response rating, Crabgrass, Large [4, 27]: 30
- Plant response rating, Field Bindweed [5, 16]: 90
- Plant response rating, Field Bindweed [5, 17]: 5
- Plant response rating, Field Bindweed [5, 18]: 80
- Plant response rating, Field Bindweed [5, 19]: 100
- Plant response rating, Field Bindweed [5, 20]: 85
- Plant response rating, Field Bindweed [5, 21]: 85
- Plant response rating, Field Bindweed [5, 22]: 0
- Plant response rating, Field Bindweed [5, 23]: 98
- Plant response rating, Foxtail, Giant [6, 24]: 5
- Plant response rating, Foxtail, Giant [6, 25]: 35
- Plant response rating, Foxtail, Giant [6, 26]: 0
- Plant response rating, Foxtail, Giant [6, 27]: 75
- Plant response rating, Goosegrass [7, 24]: 0
- Plant response rating, Goosegrass [7, 25]: 0
- Plant response rating, Goosegrass [7, 26]: 0
- Plant response rating, Goosegrass [7, 27]: 5
- Plant response rating, Horseweed [8, 16]: 50
- Plant response rating, Horseweed [8, 18]: 60
- Plant response rating, Horseweed [8, 20]: 50
- Plant response rating, Horseweed [8, 21]: 40
- Plant response rating, Johnsongrass [9, 24]: 0
- Plant response rating, Johnsongrass [9, 25]: 10
- Plant response rating, Johnsongrass [9, 26]: 0
- Plant response rating, Johnsongrass [9, 27]: 15
- Plant response rating, Morningglory [10, 24]: 30
- Plant response rating, Morningglory [10, 25]: 60
- Plant response rating, Morningglory [10, 26]: 0
- Plant response rating, Morningglory [10, 27]: 100
- Plant response rating, Nightshade [11, 24]: 0
- Plant response rating, Nightshade [11, 25]: 90
- Plant response rating, Nightshade [11, 26]: 0
- Plant response rating, Nightshade [11, 27]: 100
- Plant response rating, Panicum, Fall [12, 16]: 40
- Plant response rating, Panicum, Fall [12, 17]: 50
- Plant response rating, Panicum, Fall [12, 18]: 50
- Plant response rating, Panicum, Fall [12, 19]: 80
- Plant response rating, Panicum, Fall [12, 20]: 60
- Plant response rating, Panicum, Fall [12, 21]: 50
- Plant response rating, Panicum, Fall [12, 22]: 10
- Plant response rating, Panicum, Fall [12, 23]: 90
- Plant response rating, Pigweed, Palmer [13, 16]: 70
- Plant response rating, Pigweed, Palmer [13, 17]: 85
- Plant response rating, Pigweed, Palmer [13, 18]: 100
- Plant response rating, Pigweed, Palmer [13, 19]: 50
- Plant response rating, Pigweed, Palmer [13, 20]: 100
- Plant response rating, Pigweed, Palmer [13, 21]: 70
- Plant response rating, Pigweed, Palmer [13, 22]: 30
- Plant response rating, Pigweed, Palmer [13, 23]: 100
- Plant response rating, Ragweed [14, 16]: 70
- Plant response rating, Ragweed [14, 17]: 65
- Plant response rating, Ragweed [14, 18]: 60
- Plant response rating, Ragweed [14, 19]: 80
- Plant response rating, Ragweed [14, 20]: 90
- Plant response rating, Ragweed [14, 21]: 55
- Plant response rating, Ragweed [14, 22]: 35
- Plant response rating, Ragweed [14, 23]: 100
- Plant response rating, Soybean (soybean (Glycine max); [16]): 70
- Plant response rating, Soybean (soybean (Glycine max); [17]): 35
- Plant response rating, Soybean (soybean (Glycine max); [18]): 70
- Plant response rating, Soybean (soybean (Glycine max); [19]): 40
- Plant response rating, Soybean (soybean (Glycine max); [20]): 75
- Plant response rating, Soybean (soybean (Glycine max); [21]): 70
- Plant response rating, Soybean (soybean (Glycine max); [22]): 0
- Plant response rating, Soybean (soybean (Glycine max); [23]): 70
- Plant response rating, Surinam Grass [15, 24]: 35
- Plant response rating, Surinam Grass [15, 25]: 60
- Plant response rating, Surinam Grass [15, 26]: 5
- Plant response rating, Surinam Grass [15, 27]: 90
